Where “and” joins values, the source holds several entries; their conditions need not be identical. Identical values can stand only once. Like-named read-outs stand apart in the source and are kept apart here.
Columns and labels:
Assay type in all cases: cell-based
Citrobacter freundii = test: MIC by NCCLS broth microdilution, 1100 Japanese clinical isolates 1997-1998
Aeromonas spp. = test: MIC by agar dilution (NCCLS M7-A4), 288 enteropathogenic isolates, eight quinolones; settings: Aeromonas spp. (n = 16)
Yersinia enterocolitica = test: as above; settings: Yersinia enterocolitica (n = 22)
Staphylococcus aureus [1] = test: MIC by agar dilution (NCCLS), 411 isolates Buenos Aires 1998-99; settings: for MIC90: Staphylococcus aureus
Staphylococcus aureus [2] = test: MIC by NCCLS reference broth microdilution, 450 respiratory tract pathogens
Salmonella spp. = test: MIC by agar dilution (NCCLS M7-A4), 288 enteropathogenic isolates, gemifloxacin and 15 other antimicrobials; settings: read-out: MIC
[3] = system: Gram negative anaerobic pathogens and facultative anaerobic pathogens; test: MIC by agar dilution, Brucella HK agar with 5% laked sheep blood, anaerobic reference strains
Klebsiella pneumoniae = test: MIC by NCCLS broth microdilution, 1100 Japanese clinical isolates 1997-1998; settings: Klebsiella pneumoniae (n=35)
Streptococcus pyogenes [4] = test: MIC by NCCLS reference broth microdilution, 450 respiratory tract pathogens; settings: for MIC / MIC50 / MIC90: Streptococcus pyogenes
Enterococcus faecalis = test: MIC by agar dilution (NCCLS), 411 isolates Buenos Aires 1998-99; settings: Enterococcus faecalis (n = 48)
Staphylococcus aureus [5] = test: MIC by NCCLS broth microdilution, 1100 Japanese clinical isolates 1997-1998; settings: for MIC50 / MIC90 / MIC: Staphylococcus aureus; for MIC: Staphylococcus aureus quinolone resistant
Staphylococcus aureus [6] = test: MIC by agar macrodilution (NCCLS), 373 Gram positive isolates, Athens 1998; settings: Methicillin-susceptible Staphylococcus aureus (n = 85)
Serratia marcescens = test: MIC by NCCLS broth microdilution, 1100 Japanese clinical isolates 1997-1998
Shigella spp. [7] = test: MIC by agar dilution (NCCLS M7-A4), 288 enteropathogenic isolates, eight quinolones; settings: Shigella spp. (n = 21)
Shigella spp. [8] = test: MIC by NCCLS broth microdilution, 1100 Japanese clinical isolates 1997-1998; settings: Shigella spp. (n=34)
[9] = system: Streptococcus pneumoniae and Haemophilus influenzae; test: MIC by broth microdilution (NCCLS), all isolates pooled
Haemophilus influenzae = test: MIC by NCCLS reference broth microdilution, 450 respiratory tract pathogens; settings: Haemophilus influenzae; for MIC90: read-out: MIC90
Streptococcus pyogenes [10] = test: MIC by NCCLS broth microdilution, 1100 Japanese clinical isolates 1997-1998; settings: Streptococcus pyogenes (n=51)
[11] = S. aureus, Methicillin resistant (n = 14)
[12] = S. aureus, Methicillin susceptible (n = 66)
[13] = β-lactamase positive and erythromycin resistant (n = 10)
[14] = Streptococcus pyogenes (n = 100)
[15] = erythromycin resistant C phenotype [MLSB] (n = 20)
[16] = erythromycin resistant I phenotype [MLSB] (n = 20)
[17] = erythromycin resistant M phenotype (n = 20)
[18] = Staphylococcus aureus oxacillin resistant (n=57)
[19] = Staphylococcus aureus oxacillin susceptible (n=41)
[20] = Haemophilus influenzae (n = 100)

CO/N=C1\CN(c2nc3c(cc2F)c(=O)c(C(=O)O)cn3C2CC2)CC1CN (racemic) [Gemifloxacin, (R,S)-7-(3-aminomethyl-4-methoxyiminopyrrolidin-1-yl)-1-cyclopropyl-6-fluoro-4-oxo-1,4-dihydro-1,8-naphthyridine-3-carboxylic acid]
100%: % Susceptible (Aeromonas spp.) | % Susceptible (Yersinia enterocolitica) | % Susceptible (Shigella spp. [7])
0.0075 to 0.03 µg/mL: MIC (Streptococcus pyogenes [4]; fully susceptible (n = 20))
1 µg/mL: MIC90 (Staphylococcus aureus [1]; Staphylococcus aureus (n = 80)) | MIC ([3]; Bacteroides ovatus, ATCC8483, Bacteroides ovatus ATCC8483, read-out: MIC) | MIC ([3]; Bacteroides uniformis, ATCC8492, Bacteroides uniformis ATCC8492, read-out: MIC) | MIC ([3]; Prevotella corporis, Prevotella corporis GAI91000, read-out: MIC) | MIC ([3]; Prevotella melaninogenica, Prevotella melaninogenica GAI5490, read-out: MIC) | MIC50 (Staphylococcus aureus [5]; [18]) | MIC (Staphylococcus aureus [5]; strain TMS2* (spontaneous mutant resistant to ciprofloxacin))
2-32 fold: activity higher than that of the other fluoroquinolones tested (Streptococcus pyogenes [4]; S. pyogenes)
≤0.004 to 2 µg/mL: MIC Range (Staphylococcus aureus [1]; Staphylococcus aureus (n = 80))
≤ 0.015 µg/mL: MIC50 (Aeromonas spp.) | MIC50 (Shigella spp. [7]) | MIC90 (Shigella spp. [7])
2 µg/mL: MIC90 (Citrobacter freundii; Citrobacter freundii (n=39)) | MIC90 (Staphylococcus aureus [1]; [11]) | MIC ([3]; Bacteroides fragilis, Bacteroides fragilis GA-I7955, read-out: MIC) | MIC ([3]; Bacteroides fragilis, Bacteroides fragilis GAI30144, read-out: MIC) | MIC ([3]; Bacteroides thetaiotaomicron, ATCC29741, Bacteroides thetaiotaomicron ATCC29741, read-out: MIC) | MIC ([3]; Hoylesella oralis, ATCC33269, Prevotella oralis ATCC33269, read-out: MIC) | MIC ([3]; Prevotella buccaeATCC33574, read-out: MIC) | MIC ([3]; Sutterella wadsworthensis, ATCC51579, Sutterella wadsworthensis ATCC51579, read-out: MIC) | MIC90 (Enterococcus faecalis) | MIC (Staphylococcus aureus [5]; strain TMS5, read-out: MIC)
0.00375 to 0.03 µg/mL: MIC (Streptococcus pyogenes [4]; [15]) | MIC (Streptococcus pyogenes [4]; [17])
0.063 µg/mL: MIC90 (Klebsiella pneumoniae; read-out: MIC90) | MIC50 (Staphylococcus aureus [5]; [19]) | MIC90 (Staphylococcus aureus [5]; [19]) | MIC90 (Streptococcus pyogenes [10])
0.123 µg/mL: MIC90 (Staphylococcus aureus [2]; β-lactamase positive (n = 20))
0.06 to 0.12 µg/mL: MIC (Staphylococcus aureus [2]; β-lactamase negative (n = 20)) | MIC (Staphylococcus aureus [2]; [13])
0.0075 to 0.06 µg/mL: MIC (Haemophilus influenzae; [20]) | MIC (Haemophilus influenzae; β-lactamase positive (n = 20))
0.032 µg/mL: MIC50 (Klebsiella pneumoniae) | MIC (Staphylococcus aureus [5]; strain TMS1* (spontaneous mutant resistant to ciprofloxacin)) | MIC90 (Shigella spp. [8]) | MIC50 (Streptococcus pyogenes [10]; read-out: MIC50)
0.12 µg/mL: MIC90 (Staphylococcus aureus [2]; Staphylococcus aureus (n = 50)) | MIC50 (Staphylococcus aureus [2]; β-lactamase negative (n = 20)) | MIC90 (Staphylococcus aureus [2]; β-lactamase negative (n = 20)) | MIC50 (Staphylococcus aureus [2]; β-lactamase positive (n = 20)) | MIC (Salmonella spp.; S. virchow(2), isolates with MICs for ciprofloxacin ≥[…]) | concentration at which all isolates were inhibited ([9]; All 602 isolates)
0.008 to 8 µg/mL: MIC Range (Enterococcus faecalis)
≤ 0.03 µg/mL: MIC ([3]; Campylobacter gracilis, JCM8538, Campylobacter gracilis JCM8538, read-out: MIC) | MIC ([3]; Campylobacter ureolyticus, NCTC10941, Bacteroides ureolyticus NCTC10941, read-out: MIC) | MIC ([3]; Capnocytophaga ochracea, Capnocytophaga ochracea GAI5586, read-out: MIC) | MIC ([3]; Veillonella dispar, ATCC17748, Veillonella dispar ATCC17748, read-out: MIC)
≤ 0.008 µg/mL: MIC50 (Shigella spp. [8])
0.016 to 0.125 µg/mL: MIC Range (Streptococcus pyogenes [10])
0.016 to 4 µg/mL: MIC Range (Citrobacter freundii; Citrobacter freundii (n=39))
0%: Resistance (%) (Staphylococcus aureus [1]; [11]) | Resistance (%) (Staphylococcus aureus [1]; [12])
≤0.008 to 64 µg/mL: MIC Range (Staphylococcus aureus [5]; [18])
0.5 µg/mL: MIC ([3]; Bacteroides fragilis, ATCC25285, Bacteroides fragilis ATCC25285, read-out: MIC) | MIC ([3]; Bacteroides fragilis, Bacteroides fragilis GA-I0558, read-out: MIC) | MIC ([3]; Bacteroides fragilis, Bacteroides fragilis GAI10150, read-out: MIC) | MIC ([3]; Bacteroides fragilis, NCTC10581, Bacteroides fragilis NCTC10581, read-out: MIC) | MIC ([3]; Fusobacterium varium, ATCC8501, Fusobacterium varium ATCC8501, read-out: MIC) | MIC ([3]; Segatella oris, ATCC33573, Prevotella oris ATCC33573, read-out: MIC) | MIC90 (Serratia marcescens; Serratia marcescens (n=30))
32 µg/mL: MIC90 (Staphylococcus aureus [5]; [18]) | MIC (Staphylococcus aureus [5]; strain TMS3, read-out: MIC)
8 µg/mL: MIC ([3]; Bacteroides fragilis, Bacteroides fragilis GAI30079, read-out: MIC)
≤0.03 to 4 µg/mL: MIC Range (Staphylococcus aureus [6])
16 µg/mL: MIC ([3]; Prevotella bivia, ATCC29303, Prevotella bivia ATCC29303, read-out: MIC)
0.0075 to 0.015 µg/mL: MIC (Streptococcus pyogenes [4]; multi-drug resistant (n = 20)) | MIC (Haemophilus influenzae; β-lactamase negative (n = 80))
0.125 µg/mL: MIC50 (Citrobacter freundii; Citrobacter freundii) | MIC ([3]; Fusobacterium nucleatum, ATCC25586) | MIC ([3]; Prevotella heparinolytica, ATCC35895) | MIC90 (Staphylococcus aureus [6]; read-out: MIC90) | MIC50 (Serratia marcescens; Serratia marcescens)
4 µg/mL: MIC ([3]; Bacteroides eggerthii, ATCC27754, Bacteroides eggerthii ATCC27754, read-out: MIC) | MIC (Staphylococcus aureus [5]; strain TMS4, read-out: MIC)
≤0.015 to 0.12 µg/mL: MIC Range (Aeromonas spp.) | MIC Range (Yersinia enterocolitica)
0.06 µg/mL: MIC50 (Staphylococcus aureus [2]; Staphylococcus aureus (n = 50)) | MIC50 (Staphylococcus aureus [2]; [13]) | MIC90 (Staphylococcus aureus [2]; [13]) | MIC ([3]; Desullomonas pigra DSM749, read-out: MIC) | MIC ([3]; Porphylomonas gingivalis ATCC33277, read-out: MIC) | MIC ([3]; Porphyromonas asaccharolytica, ATCC25260, Porphyromonas asaccharolytica ATCC25260, read-out: MIC) | MIC ([3]; Veillonella parvula, ATCC10790, Veillonella parvula ATCC10790, read-out: MIC) | MIC50 (Staphylococcus aureus [6]; read-out: MIC50) | concentration at which all microorganisms were inhibited ([9]; 380 isolates (235 S. pneumoniae, 145 H. influenzae)) | MIC90 ([9]; all isolates tested (602))
≤ 0.00075 µg/mL: MIC90 (Haemophilus influenzae; [20])
0.03 µg/mL: MIC90 (Aeromonas spp.) | MIC50 (Yersinia enterocolitica) | MIC90 (Yersinia enterocolitica) | MIC90 (Staphylococcus aureus [1]; [12]) | MIC90 (Streptococcus pyogenes [4]; [14]) | MIC90 (Streptococcus pyogenes [4]; [16]) | MIC90 (Streptococcus pyogenes [4]; fully susceptible (n = 20)) | MIC90 (Streptococcus pyogenes [4]; multi-drug resistant (n = 20)) | MIC90 ([9]; all (380) isolates tested (235 S. pneumoniae, 145 H. influenzae))
0.25 µg/mL: MIC (Salmonella spp.; S. hadar(2), isolates with MICs for ciprofloxacin ≥[…]) | MIC (Salmonella spp.; S. newport(1), isolate with MIC for ciprofloxacin ≥[…]) | MIC (Salmonella spp.; Salmonella, S. tshiongwe(1), isolate with MIC for ciprofloxacin ≥[…]) | MIC ([3]; Bacteroides fragilis, Bacteroides fragilis GA15562, read-out: MIC) | MIC ([3]; Fusobacterium necrophorum, ATCC25286, Fusobacterium necrophorum ATCC25286, read-out: MIC) | MIC ([3]; Parabacteroides distasonis, ATCC8503, Bacteroides distasonis ATCC8503, read-out: MIC) | MIC ([3]; Phocaeicola vulgatus, ATCC8482, Bacteroides vulgatus ATCC8482, read-out: MIC) | MIC (Staphylococcus aureus [5]; strain TMS6, read-out: MIC)
0.00375 to 0.12 µg/mL: MIC (Staphylococcus aureus [2]; Staphylococcus aureus (n = 50)) | MIC (Staphylococcus aureus [2]; β-lactamase positive (n = 20))
≤0.008 to 0.032 µg/mL: MIC Range (Shigella spp. [8])
≤0.008 to 1 µg/mL: MIC Range (Staphylococcus aureus [5]; [19])
≤ 0.0075 µg/mL: MIC50 (Haemophilus influenzae; [20]) | MIC50 (Haemophilus influenzae; β-lactamase negative (n = 80)) | MIC90 (Haemophilus influenzae; β-lactamase negative (n = 80)) | MIC50 (Haemophilus influenzae; β-lactamase positive (n = 20))
≤0.015 µg/mL: MIC Range (Shigella spp. [7])
0.015 µg/mL: MIC50 (Streptococcus pyogenes [4]; [14]) | MIC50 (Streptococcus pyogenes [4]; [15]) | MIC90 (Streptococcus pyogenes [4]; [15]) | MIC50 (Streptococcus pyogenes [4]; [16]) | MIC50 (Streptococcus pyogenes [4]; [17]) | MIC90 (Streptococcus pyogenes [4]; [17]) | MIC50 (Streptococcus pyogenes [4]; fully susceptible (n = 20)) | MIC50 (Streptococcus pyogenes [4]; multi-drug resistant (n = 20)) | MIC90 (Haemophilus influenzae; β-lactamase positive (n = 20))
1 µg/mL and 0.125 µg/mL: MIC [3]
0.063 to 128 µg/mL: MIC Range (Serratia marcescens; Serratia marcescens (n=30))
0.00375 to 0.06 µg/mL: MIC (Streptococcus pyogenes [4]; [14]) | MIC (Streptococcus pyogenes [4]; [16])
0.016 to 1 µg/mL: MIC Range (Klebsiella pneumoniae)

— patent EP1561465A2, “Methods of use of fluoroquinolone compounds against bacteria” (LG Life Sciences, Ltd., priority 1999, dated 2001)
